Test results published in paper PMC8200211, “PTD4 Peptide Increases Neural Viability in an In Vitro Model of Acute Ischemic Stroke” (International Journal of Molecular Sciences, 2021).
“Also recorded” adds a separate entry of the source. Read-outs that look alike come from different tables or passages of the source. Where no end group is shown, it is not given here.

Experiments:
[1] = system: primary neural cortical cultures; assay: Peptide neurotoxicity, CellTiter-Blue viability assay; format: cell-based, Wistar rat; details: for Neural viability, relative to non-insulted control: 100 µM; for Concentration at which neurotoxic impact was visible: tested 1, 10, 50, 100, 200 µM
Experimental: (§1) All animal experiments were conducted in accord with the permission of the Local Bioethics Committee. Primary cortical neurons were isolated from Wistar rat embryos at embryonic day 18.5 (E18.5). Pregnant females were euthanized in a CO2 chamber, and the embryos were immediately removed in order to microdissect the brains. The cortices were excised, transferred to Hank’s Balanced Salt Solution (HBSS, Gibco, Waltham, MA, USA), supplemented with a 1% penicillin/streptomycin mixture (Gibco, Waltham, MA, USA) and washed. Afterwards, the tissue was trypsinized (2.5% trypsin, Gibco, Waltham, MA, USA) for 10 min at 37 °C, and homogenized gently by re-suspension with a sterile tip of a pipette. The cell suspension was centrifuged in 300 rcf for 4 min and re-suspended in Neurobasal-A medium (Gibco, Waltham, MA, USA) supplemented to final concentration with 1 mM sodium pyruvate, 12.5 mM glucose 2% B27 (Gibco, Waltham, MA, USA), […] L-glutamine, […], a 1% penicillin/streptomycin mixture, and seeded in a 24-well plate poly-D-lysine (PDL)-coated (BioCoat, Corning, Tewksburry, MA, USA) in the number of 200,000 cells per well. The neural cultures were incubated in a CO2 chamber (5%, 95% air balance, 98% humidity, 37 °C) for 14 days and were used on culture day in vitro (DIV) 14–15.
The influence of all peptides on neural viability was assessed by exposing the cells to different peptide concentrations (1, 10, 50, 100, 200 µM) for 20 h at 37 °C in a 5% CO2 chamber. The assessments were performed in 24-well PDL-coated plates (BioCoat, Corning, Tewksbury, MA, USA) with a working volume of 500 µL/well. The respective peptide solutions were prepared in culture medium so that in all wells only 50 µL of the medium was exchanged, including control (untreated) samples.
Neural viability was assessed in CellTiter-Blue® (CTB) assay (Promega, cat #G8080, Madison, WI, USA) after 20 h long incubation of cells in standard Neurobasal medium after stressful conditions. The test was performed in 24-well PDL-coated plates (BioCoat, Corning, Tewksbury, MA, USA) and according to the manufacturer’s guideline, which included adding the solution to the neural culture well, followed by incubation for 1–4 h at 37 °C (5% CO2). The fluorescence intensity of the CTB reagent was measured spectrofluorimetrically (560ex/590em) and was proportional to the number of viable cells. The results were calculated as a percentage taking the respective control (non-insulted) measurement as 100% viability.
Each cell viability experiment was performed in at least three biologically independent experiments, in each of which neural cultures were obtained from one female rat. Each female originated from different breeding parents. In one experiment, the viability assessments for each condition were conducted in three plates, with three–four replicate wells per plate. For every plate, relative viability for one condition were averaged, and then used to calculate averaged results for all plates in an experiment. The final values were calculated from averaged results of independent experiments and shown as a mean ± standard deviation (SD), n = 3. The data were analyzed by a two-way ANOVA test with p-value < 0.05 values considered statistically significant.

[2] = system: pre-insulted rat primary neural culture; assay: Pro-viable effect of peptides in a multifactorial in vitro model of acute ischemic stroke, CellTiter-Blue; format: cell-based, Wistar rat; details: 1 h, then 50 µM peptide 20 h; for Neuroprotection against excitotoxicity: 400 µM glutamic acid, 800 µM NMDA or 800 µM kainic acid
Experimental: as §1, with “14–15. […]” for “14–15.”
Neural viability was assessed in CellTiter-Blue® (CTB) assay (Promega, cat #G8080, Madison, WI, USA) after 20 h long incubation of cells in standard Neurobasal medium after stressful conditions. […] The fluorescence intensity of the CTB reagent was measured spectrofluorimetrically (560ex/590em) and was proportional to the number of viable cells. The results were calculated as a percentage taking the respective control (non-insulted) measurement as 100% viability. […]

cell membrane = details: previous reports; cited from earlier work
Description: Comparing the native Tat(49–57)-NH2 and PTD4, the latter appeared as a better-performing neuroprotectant in the AIS model. Mechanistically, this may indicate a possible correlation between neuroprotection and the structural and acid-base peptide properties.

Compound: C#CC(=O)N[C@@H](CCCNC(=N)N)C(=O)N[C@@H](CCCCN)C(=O)N[C@@H](CCCCN)C(=O)N[C@@H](CCCNC(=N)N)C(=O)N[C@@H](CCCNC(=N)N)C(=O)N[C@@H](CCC(N)=O)C(=O)N[C@@H](CCCNC(=N)N)C(=O)N[C@@H](CCCNC(=N)N)C(=O)N[C@@H](CCCNC(=N)N)C(N)=O [Prop-Tat]
- Neural viability, relative to non-insulted control [1]: < 10%
- Concentration at which neurotoxic impact was visible ([1]; 20 h exposure, CTB assay): 1000 nM

Compound: CC[C@H](C)[C@H](NC(=O)[C@H](CCCCN)NC(=O)[C@H](CCCCN)NC(=O)[C@H](C)NC(=O)[C@H](CC(C)C)NC(=O)[C@H](C)NC(=O)[C@H](C)NC(=O)[C@H](CC(C)C)NC(=O)[C@H](C)NC(=O)[C@H](CCCCN)NC(=O)[C@H](CC(C)C)NC(=O)[C@H](CC(N)=O)NC(=O)[C@@H](NC(=O)[C@H](CCCCN)NC(=O)CNC(=O)[C@H](CC(C)C)NC(=O)[C@H](CC(C)C)NC(=O)[C@H](Cc1ccc(O)cc1)NC(=O)CNC(=O)[C@H](C)N)[C@@H](C)CC)C(=O)N[C@@H](CC(C)C)C(N)=O [TP10, reference compound]
- Neural viability, relative to non-insulted control [1]: < 10%
- Neurotoxicity ranking among the peptides tested ([1]; 1-200 µM, 20 h exposure, CTB assay): highest toxicity
- Concentration at which neurotoxic impact was visible ([1]; 20 h exposure, CTB assay): 1000 nM

Compound: RKKR^52RQRRR^57-amide [Tat(49–57)-NH2, reference compound]
- Neurotoxicity at higher concentrations ([1]; >100 µM, 20 h exposure, CTB assay, n = 3): most toxic impact; also recorded: significantly neurotoxic
- Neuroprotection against excitotoxicity [2]: significant neuroprotection

Compound: YARAAARQARA-NH2 [PTD4, less basic Ala-substituted analogue of Tat(49–57)-NH2, cell-penetrating peptide]
- Efficiency of peptide translocation across the cell membrane compared to Tat(49–57)-NH2 (cell membrane): almost thirty times higher
- Highest non-toxic concentration [1]: 50 µM
- Neurotoxicity at higher concentrations [1]: significantly neurotoxic
- Neurotoxicity at low concentrations [1]: negligible
- Neurotoxicity ranking among the peptides tested [1]: lowest neurotoxicity
- Neuroprotection against excitotoxicity [2]: significant neuroprotection
- Pro-viable activity against acidosis ([2]; acidosis pH 6.35, 200 mM sodium lactate): displayed pro-viable activity
